Laboratory results: the supplement of paper PMC10307832

Legend:
Assay in all cases: relative viability (nuclei count vs DMSO), 5 days (fraction); higher = more cells survive
Doramapimod + Alpelisib = compound: Cc1ccc(-n2nc(C(C)(C)C)cc2NC(=O)Nc2ccc(OCCN3CCOCC3)c3ccccc23)cc1 [Doramapimod] + Cc1nc(NC(=O)N2CCC[C@H]2C(N)=O)sc1-c1ccnc(C(C)(C)C(F)(F)F)c1 [Alpelisib] (partner 2 µM)
Method in brief: (§1)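 Lung cancer cell lines in 1536-well plates were dosed by pin tool the day after seeding, either with one drug alone or with a fixed anchor-drug dose plus five library-drug doses (not always all listed) in √10 steps. After 5 days, cells were fixed and their nuclei stained in one step (final 0.05% Triton X-100, 1% formaldehyde, 1 ug/ml Hoechst), then counted on 4× images. Relative viability is the nuclei count in treated wells divided by that in vehicle wells. Values are medians of duplicate plates.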

Doramapimod + Decitabine = compound: Cc1ccc(-n2nc(C(C)(C)C)cc2NC(=O)Nc2ccc(OCCN3CCOCC3)c3ccccc23)cc1 [Doramapimod] + Nc1ncn([C@H]2C[C@H](O)[C@@H](CO)O2)c(=O)n1 [Decitabine] (partner 2 µM)
Method in brief: as §1

RAF265 + Palbociclib = compound: Cn1c(Nc2ccc(C(F)(F)F)cc2)nc2cc(Oc3ccnc(-c4ncc(C(F)(F)F)[nH]4)c3)ccc21 [RAF265] + CC(=O)c1c(C)c2cnc(Nc3ccc(N4CCNCC4)cn3)nc2n(C2CCCC2)c1=O [Palbociclib] (partner 0.5 µM)
Method in brief: as §1

RAF265 + Vorinostat = compound: Cn1c(Nc2ccc(C(F)(F)F)cc2)nc2cc(Oc3ccnc(-c4ncc(C(F)(F)F)[nH]4)c3)ccc21 [RAF265] + O=C(CCCCCCC(=O)Nc1ccccc1)NO [Vorinostat] (partner 1 µM)
Method in brief: as §1

Cell Line | relative viability (Doramapimod + Alpelisib; first compound 0.02 µM) | relative viability (Doramapimod + Alpelisib; first compound 0.06325 µM) | relative viability (Doramapimod + Alpelisib; first compound 0.2 µM) | relative viability (Doramapimod + Alpelisib; first compound 0.6325 µM) | relative viability (Doramapimod + Alpelisib; first compound 2 µM) | relative viability (Doramapimod + Decitabine; first compound 0.02 µM) | relative viability (Doramapimod + Decitabine; first compound 0.06325 µM) | relative viability (Doramapimod + Decitabine; first compound 0.2 µM) | relative viability (Doramapimod + Decitabine; first compound 0.6325 µM) | relative viability (Doramapimod + Decitabine; first compound 2 µM) | relative viability (RAF265 + Palbociclib; first compound 0.01 µM) | relative viability (RAF265 + Palbociclib; first compound 0.03162 µM) | relative viability (RAF265 + Palbociclib; first compound 0.1 µM) | relative viability (RAF265 + Palbociclib; first compound 0.3162 µM) | relative viability (RAF265 + Palbociclib; first compound 1 µM) | relative viability (RAF265 + Vorinostat; first compound 0.01 µM) | relative viability (RAF265 + Vorinostat; first compound 0.03162 µM) | relative viability (RAF265 + Vorinostat; first compound 0.1 µM) | relative viability (RAF265 + Vorinostat; first compound 0.3162 µM) | relative viability (RAF265 + Vorinostat; first compound 1 µM)
ABC-1 | 1.09 | 0.839 | 1.14 | 1.08 | 0.954 | 1 | 1.19 | 0.983 | 0.959 | 1.01 | 0.633 | 0.644 | 0.646 | 0.528 | 0.47 | 1.34 | 0.853 | 1.3 | 0.982 | 0.644
LK-2 | 1.03 | 0.906 | 0.751 | 0.737 | 0.76 | 0.294 | 0.288 | 0.25 | 0.232 | 0.266 | 0.558 | 0.679 | 0.722 | 0.804 | 0.364 | 0.361 | 0.245 | 0.328 | 0.404 | 0.2
NCI-H2023 | 0.498 | 0.54 | 0.503 | 0.617 | 0.503 | 0.233 | 0.211 | 0.263 | 0.218 | 0.216 | 0.411 | 0.34 | 0.37 | 0.291 | 0.268 | 0.59 | 0.501 | 0.707 | 0.515 | 0.381
SK-MES-1 | 0.87 | 0.765 | 0.766 | 0.869 | 0.675 | 0.329 | 0.355 | 0.356 | 0.424 | 0.315 | 0.291 | 0.233 | 0.241 | 0.252 | 0.204 | 1.12 | 0.772 | 0.519 | 0.398 | 0.343
NCI-H1793 | 0.788 | 0.595 | 0.786 | 0.643 | 0.595 | 0.523 | 0.449 | 0.526 | 0.483 | 0.392 | 0.309 | 0.274 | 0.218 | 0.213 | 0.195 | 0.865 | 0.697 | 0.633 | 0.201 | 0.311
NCI-H2405 | 0.82 | 0.718 | 0.715 | 1.18 | 0.678 | 0.758 | 0.713 | 0.703 | 0.861 | 0.685 | 0.552 | 0.497 | 0.499 | 0.491 | 0.282 | 1.02 | 0.888 | 1.08 | 0.683 | 0.465
LCLC-103H | 0.998 | 0.917 | 0.961 | 0.966 | 0.973 | 0.714 | 0.704 | 0.719 | 0.742 | 0.654 | 0.463 | 0.47 | 0.496 | 0.404 | 0.322 | 0.844 | 0.892 | 0.683 | 0.565 | 0.422
NCI-H460 | 0.446 | 0.467 | 0.372 | 0.441 | 0.357 | 0.499 | 0.434 | 0.487 | 0.553 | 0.46 | 0.203 | 0.203 | 0.171 | 0.2 | 0.0711 | 0.756 | 0.692 | 0.671 | 0.668 | 0.642
NCI-H1755 | 0.907 | 0.884 | 0.989 | 0.98 | 0.922 | 0.778 | 0.753 | 0.711 | 0.666 | 0.706 | 0.385 | 0.445 | 0.462 | 0.414 | 0.309 | 0.8 | 0.663 | 0.694 | 0.579 | 0.476
NCI-H358 | 0.885 | 0.653 | 0.768 | 0.918 | 0.799 | 0.209 | 0.203 | 0.197 | 0.232 | 0.205 | 0.129 | 0.117 | 0.116 | 0.129 | 0.124 | 0.744 | 0.564 | 0.613 | 0.459 | 0.178
NCI-H1734 | 0.603 | 0.567 | 0.559 | 0.629 | 0.533 | 0.476 | 0.47 | 0.489 | 0.51 | 0.363 | 0.384 | 0.319 | 0.324 | 0.286 | 0.221 | 0.801 | 0.715 | 0.731 | 0.536 | 0.322
EPLC-272H | 0.924 | 0.918 | 0.946 | 1.04 | 0.811 | 0.377 | 0.389 | 0.361 |  | 0.394 | 0.334 | 0.291 | 0.352 | 0.287 | 0.269 | 0.503 | 0.472 | 0.318 | 0.22 | 0.113
NCI-H2126 | 0.743 | 0.733 | 0.733 | 0.742 | 0.662 | 0.561 | 0.57 | 0.543 | 0.614 | 0.55 | 0.373 | 0.354 | 0.377 | 0.361 | 0.365 | 0.841 | 0.771 | 0.733 | 0.673 | 0.464
